Key:
[1] = for surface tension liquid-gas: Drop volume; for viscosity / speed of sound / mass density: 101.33 kPa; for viscosity / speed of sound / mass density / vapor or sublimation pressure: Liquid; for viscosity: Capillary tube (Ostwald / Ubbelohde) method; for speed of sound: Sing-around technique in a fixed-path interferometer; for mass density: Vibrating tube method; for vapor or sublimation pressure: Ebulliometric method (Recirculating still)
[2] = refractive index (Na D-line) (dimensionless); conditions: 101.33 kPa, Liquid, Standard Abbe refractometry
[3] = relative permittivity at various frequencies (dimensionless); conditions: 101.3 kPa, Liquid, Frequency=2 MHz, Parallel plate capacitor

CCCCOC(=O)C(C)O (stereo not given) [butyl 2-hydroxypropanoate]
Conditions | mass density, [1] [kg/m3] | refractive index, [2] | relative permittivity, [3] | speed of sound, [1] [m/s] | surface tension liquid-gas, [1] [mN/m] | vapor or sublimation pressure, [1] [kPa] | viscosity, [1] [mPa·s]
278.15 K | 996.896 | – | 11.488 | 1357.2 | 30.07 | – | 6.496
280.65 K | 994.466 | – | 11.323 | 1348.2 | 29.86 | – | 5.873
283.15 K | 992.023 | 1.42578 | 11.164 | 1339.1 | 29.65 | – | 5.333
285.65 K | 989.578 | 1.42472 | 11.046 | 1330.1 | 29.42 | – | 4.86
288.15 K | 987.126 | 1.4237 | 10.912 | 1321.2 | 29.14 | – | 4.446
290.65 K | 984.671 | 1.42259 | 10.769 | 1312.2 | 28.93 | – | 4.077
293.15 K | 982.212 | 1.4215 | 10.593 | 1303.2 | 28.72 | – | 3.753
295.65 K | 979.75 | 1.42038 | 10.428 | 1294.1 | 28.38 | – | 3.466
298.15 K | 977.283 | 1.41928 | 10.298 | 1285 | 28.15 | – | 3.207
300.65 K | 974.813 | 1.41815 | 10.158 | 1276 | 27.87 | – | 2.978
303.15 K | 972.337 | 1.41703 | 10.024 | 1266.9 | 27.64 | 0.102 | 2.773
305.65 K | 969.859 | 1.4159 | 9.87 | 1257.8 | 27.38 | – | 2.588
308.15 K | 967.374 | 1.41477 | 9.695 | 1248.8 | 27.16 | 0.149 | 2.423
310.65 K | 964.888 | 1.41366 | 9.583 | 1239.8 | 26.92 | – | 2.272
313.15 K | 962.397 | 1.41252 | 9.411 | 1230.8 | 26.68 | 0.201 | 2.134
315.65 K | 959.903 | 1.41139 | 9.273 | 1221.7 | 26.42 | – | 2.011
318.15 K | 957.407 | 1.41026 | 9.165 | 1212.8 | 26.1 | 0.273 | 1.897
320.65 K | 954.908 | 1.4091 | 9.002 | 1203.8 | 25.89 | – | 1.793
323.15 K | 952.408 | 1.40797 | 8.844 | 1194.9 | 25.7 | 0.371 | 1.695
325.65 K | 949.904 | 1.40682 | 8.699 | 1185.9 | 25.43 | – | 1.607
328.15 K | 947.397 | 1.40572 | 8.545 | 1177 | 25.14 | 0.511 | 1.526
330.65 K | 944.885 | 1.40441 | 8.418 | 1168 | 24.92 | – | 1.45
333.15 K | 942.369 | 1.40341 | 8.286 | 1159.1 | 24.67 | 0.679 | 1.379
335.65 K | 939.848 | 1.40226 | 8.164 | 1150.3 | 24.41 | – | 1.315
338.15 K | 937.324 | 1.40114 | 8.047 | 1141.5 | 24.16 | 0.899 | 1.257
343.15 K | – | – | – | – | – | 1.192 | –
348.15 K | – | – | – | – | – | 1.541 | –
353.15 K | – | – | – | – | – | 1.979 | –
358.15 K | – | – | – | – | – | 2.502 | –
363.15 K | – | – | – | – | – | 3.224 | –
368.15 K | – | – | – | – | – | 4.057 | –
373.15 K | – | – | – | – | – | 5.075 | –
378.15 K | – | – | – | – | – | 6.271 | –
383.15 K | – | – | – | – | – | 7.753 | –
388.15 K | – | – | – | – | – | 9.531 | –
393.15 K | – | – | – | – | – | 11.64 | –
398.15 K | – | – | – | – | – | 14.12 | –
403.15 K | – | – | – | – | – | 17 | –
408.15 K | – | – | – | – | – | 20.43 | –
413.15 K | – | – | – | – | – | 24.39 | –
418.15 K | – | – | – | – | – | 29.2 | –
423.15 K | – | – | – | – | – | 34.6 | –
428.15 K | – | – | – | – | – | 40.78 | –
433.15 K | – | – | – | – | – | 47.9 | –
438.15 K | – | – | – | – | – | 55.97 | –
443.15 K | – | – | – | – | – | 65.3 | –
448.15 K | – | – | – | – | – | 75.81 | –
453.15 K | – | – | – | – | – | 87.7 | –

COC(=O)C(C)O (stereo not given) [methyl 2-hydroxypropanoate]
Conditions | mass density, [1] [kg/m3] | refractive index, [2] | relative permittivity, [3] | speed of sound, [1] [m/s] | surface tension liquid-gas, [1] [mN/m] | vapor or sublimation pressure, [1] [kPa] | viscosity, [1] [mPa·s]
278.15 K | 1109.61 | – | 18.379 | 1416.4 | 35.05 | – | 5.21
280.65 K | 1106.86 | – | 18.095 | 1407.1 | 34.8 | – | 4.706
283.15 K | 1104.11 | 1.41831 | 17.817 | 1397.6 | 34.53 | – | 4.281
285.65 K | 1101.34 | 1.41722 | 17.634 | 1387.9 | 34.25 | – | 3.916
288.15 K | 1098.57 | 1.41613 | 17.353 | 1378.2 | 34.04 | – | 3.588
290.65 K | 1095.79 | 1.41502 | 17.06 | 1368.2 | 33.73 | – | 3.299
293.15 K | 1093.01 | 1.41392 | 16.779 | 1358.4 | 33.47 | – | 3.043
295.65 K | 1090.23 | 1.41281 | 16.493 | 1348.6 | 33.14 | – | 2.819
298.15 K | 1087.43 | 1.41171 | 16.21 | 1338.8 | 32.9 | – | 2.618
300.65 K | 1084.64 | 1.41061 | 15.923 | 1329.2 | 32.6 | – | 2.438
303.15 K | 1081.83 | 1.40949 | 15.647 | 1319.5 | 32.25 | 0.692 | 2.277
305.65 K | 1079.02 | 1.40837 | 15.412 | 1309.9 | 31.95 | – | 2.132
308.15 K | 1076.2 | 1.40725 | 15.093 | 1300.4 | 31.58 | 0.967 | 2
310.65 K | 1073.38 | 1.40614 | 14.861 | 1290.9 | 31.23 | – | 1.881
313.15 K | 1070.55 | 1.40502 | 14.598 | 1281.4 | 30.87 | 1.333 | 1.772
315.65 K | 1067.71 | 1.40386 | 14.355 | 1271.9 | 30.63 | – | 1.672
318.15 K | 1064.86 | 1.40276 | 14.127 | 1262.4 | 30.34 | 1.821 | 1.58
320.65 K | 1062.01 | 1.40164 | 13.9 | 1253 | 30.08 | – | 1.499
323.15 K | 1059.15 | 1.40051 | 13.666 | 1243.5 | 29.71 | 2.399 | 1.425
325.65 K | 1056.28 | 1.39937 | 13.359 | 1234.1 | 29.38 | – | 1.345
328.15 K | 1053.4 | 1.39821 | 13.113 | 1224.6 | 29.03 | 3.173 | 1.29
330.65 K | 1050.52 | 1.3971 | 12.879 | 1215.2 | 28.83 | – | 1.231
333.15 K | 1047.63 | 1.39596 | 12.631 | 1205.7 | 28.52 | 4.139 | 1.175
335.65 K | 1044.73 | 1.39479 | 12.319 | 1196.3 | 28.22 | – | 1.136
338.15 K | 1041.83 | 1.39365 | 12.012 | 1186.9 | 27.92 | 5.319 | 1.075
343.15 K | – | – | – | – | – | 6.889 | –
348.15 K | – | – | – | – | – | 8.652 | –
353.15 K | – | – | – | – | – | 10.81 | –
358.15 K | – | – | – | – | – | 13.49 | –
363.15 K | – | – | – | – | – | 16.6 | –
368.15 K | – | – | – | – | – | 20.3 | –
373.15 K | – | – | – | – | – | 24.7 | –
378.15 K | – | – | – | – | – | 29.68 | –
383.15 K | – | – | – | – | – | 35.5 | –
388.15 K | – | – | – | – | – | 42.28 | –
393.15 K | – | – | – | – | – | 50 | –
398.15 K | – | – | – | – | – | 58.68 | –
403.15 K | – | – | – | – | – | 68.64 | –
408.15 K | – | – | – | – | – | 79.85 | –
413.15 K | – | – | – | – | – | 92.5 | –

— the NIST ThermoML archive (doi:10.1016/j.tca.2013.11.010)
